Test [1] has as its system Firefly luciferase enzyme. The conditions noted are these: 1 millisecond UV pulse, Xenon lamp; pulse power varied 40, 60, 80 mJ per pulse; D-Luciferin the limiting factor.
Description: In this experiment, caged D-Luciferin was utilized to control the reaction.
Functional D-Luciferin was delivered to the reaction from caged D-Luciferin upon exposure of the reaction components to a pulse of UV light with suitable power.
Firefly luciferase enzyme dissolved in Tricine buffer pH 7.8 (50 mM N-Tris (hydroxymethyl) methylglycine) adjusted with NaOH, supplied by Kikkoman Catalog LUC T
5 mM Mg citrate in PBS, pH 7.4-
100 mM ATP solution, pH 7.5 (Amersham Pharmacia, Catalog No. 272056).
In a total reaction volume of 25 μL, the following components were added as solutions to a suitable cell:
10 μL of luciferase solution
5 μL of 5 mM Mg citrate in PBS
5 μL of 1 mM ATP solution
5 μL caged D-Luciferin solution.
The cell with the components was exposed to a pulse of UV (1 millisecond_pulse by a Xenon Lamp, Rapp Optoelectronic). The power of the UV pulse was varied (40, 60, 80 mJ per pulse).
The subject of a further test is luciferase. Nature of the test: UV uncaging of caged ATP to trigger luciferase chemiluminescent reaction (Example 1). The settings on record: 1 millisecond UV pulse, Xenon lamp; pulse power varied 40, 60, 80 mJ per pulse; ATP the limiting factor. Type of test: biochemical. Here is the method:
In this experiment, caged ATP was utilized to control the reaction. […] Reagents:
Lyophilized luciferase/lyophilized D-Luciferin were dissolved in Tricine buffer [50 mM N-tris(hydroxymethyl)methylglycine, adjusted with NaOH to pH 7.8, Lot 1418] both supplied by Kikkoman as assay kit, CheckLite HS Plus, Catalog # 60342).
5 mM Mg citrate in phosphate buffered saline (PBS, pH 7.4)
Caged ATP (p-(1-(4,5-dimethoxy-2-nitrophenyl)ether, disodium salt-caged adenosine-5-triphosphate) in methanol, 5 mg in 300 μL (Molecular probes, Catalog # A-1049).
In a total reaction volume of 20 μL, the following were mixed in a suitable reaction cell
10 μL of Luciferase/D-Luciferin solution mix,
5 μL of 5 mM Mg Citrate in PBS
5 μL of caged ATP solution.

On to “1-(4,5-dimethoxy-2-nitrophenyl)ethyl ester—caged D-luciferin”, for which the “amount of light released from the reaction” value in test [1] is given as “increased with the increase of the UV pulse power”.

As for `COc1cc(C(C)OP(=O)([O-])OP(=O)(O)OP(=O)([O-])OCC2OC(n3cnc4c(N)ncnc43)C(O)C2O)c([N+](=O)[O-])cc1OC.[Na+].[Na+]` (centres unmarked) [caged ATP, p-(1-(4,5-dimethoxy-2-nitrophenyl)ether, disodium salt-cagedadenosine-5-triphosphate)], in the test with luciferase, the “amount of light released from the reaction” value is recorded as “increased with the increase of the UV pulse power”.

The values are drawn from patent US20040063165A1, “Light-activated in vitro assay process for luciferase bioluminescence” (priority 2003, published 2004).
